This is an account of results in patent publication US20060211887A1, “Phosphate salts of 6-dimethylaminomethyl-1-(3-methoxyphenyl)-1,3-dihydroxy-cyclohexane compounds” (priority 2005, published 2006).

Common to all, as to assay type: physicochemical
Series [1] can be described thus: Drying of form B of the phosphate salt in vacuo, physical form checked by X-ray powder diffractometry, thermal analysis and 1H NMR. As for the experimental part:
The form B was dried for 13 hours at 40° C. in vacuo.
The form B was dried for 24 hours at 40° C. in vacuo.
Form B was dried at 68° C. in a drying cabinet in vacuo for 3 days.

Series [2] is described as follows: DVS (dynamic vapor sorption) experiment on the amorphous phosphate salt. The source says: The amorphous phosphate salt of I crystallized during a DVS (dynamic vapor sorption) experiment at a relative atmospheric humidity of 45% r.h.
Series [3] in a line: Storage of the amorphous phosphate salt at 75% r.h. Particulars: crystallized after 8 days. The source says: The amorphous phosphate salt crystallized after 8 days on storage at a relative atmospheric humidity of 75% r.h. and formed form A.
A short description of series [4]: Storage at defined relative atmospheric humidity (approx. 75% or 95%, then approx. 4%) with thermogravimetric analysis, weighing and X-ray powder diffractometry. Particulars: for % pt (middle) / % pt after: vs before storage; for Form middle / Form after: X-ray powder diffractometry. The text has this: Storage of the hydrochloride salts, which are not according to the invention (identified H1 to H3 in the following examples of compounds; for the synthesis see the subsequent experimental part), at room temperature over saturated sodium chloride solution results in a relative atmospheric humidity of approx. 75% (±5%). Storage of the samples at room temperature over saturated potassium sulfate solution results in a relative atmospheric humidity of approx. 95% (±5%).
Storage of the samples at room temperature over drying beads (blau+, Engelhardt, Nienburg) results in a relative atmospheric humidity of approx. 4% (±5%).
The samples were stored at approx. 75% relative atmospheric humidity for approx. 8.5 days. The samples were then stored at a relative atmospheric humidity of approx. 4% for a further approx. 6 h.
They were analyzed for their loss in weight by means of thermogravimetric analyses (amount of sample approx. 5-20 mg, heating rate approx. 10 K/min, heating range from approx. 25° C. to approx. 240° C.).
The approximate difference in the moisture content (in percentage points; % pt) from after the storage to before the particular storage step is stated.
In addition, the percentage change in the total weight of the sample occurring in the respective storage step was determined by weighing (“laboratory”).
The crystalline form was determined by means of X-ray powder diffractometry.
The samples were stored at approx. 95% relative atmospheric humidity for approx. 8.5 days. The samples were then stored at a relative atmospheric humidity of approx. 4% for a further approx. 6 h.
The approximate difference in the moisture content (in percentage points; % pt) from after the storage to before the storage is stated.
The samples were stored at approx. 75% relative atmospheric humidity for approx. 7 days. The samples were then stored at a relative atmospheric humidity of approx. 4% for a further approx. 2.5 days.
The approximate difference in the moisture content (in percentage points; % pt) from after the storage step to before the storage is stated.
The samples were stored at approx. 95% relative atmospheric humidity for approx. 7 days. The samples were then stored at a relative atmospheric humidity of approx. 4% for a further approx. 7 days.
Storage of the phosphate salts I-P according to the invention, called samples in the following, at room temperature over saturated sodium chloride solution results in a relative atmospheric humidity of approx. 75 (±5) % . Storage of the samples at room temperature over saturated potassium sulfate solution results in a relative atmospheric humidity of approx. 95 (±5) %.
Storage of the samples at room temperature over drying beads (blau+, Engelhardt, Nienburg) results in a relative atmospheric humidity of approx. 4 (±5) %.
The samples were stored at approx. 75 (±5) % relative atmospheric humidity for approx. 8.5 days. The samples were then stored at a relative atmospheric humidity of approx. 4 (±5) % for a further approx. 6 h.
The samples were stored at approx. 95 (±5) % relative atmospheric humidity for approx. 8.5 days. The samples were then stored at a relative atmospheric humidity of approx. 4 (±5) % for a further approx. 6 h.
The samples were stored at approx. 75 (±5) % relative atmospheric humidity for approx. 7 days. The samples were then stored at a relative atmospheric humidity of approx. 4 (±5) % for a further approx. 20 h.
The samples were stored at approx. 95 (±5) % relative atmospheric humidity for approx. 7 days. The samples were then stored at a relative atmospheric humidity of approx. 4 (±5) % for a further approx. 20 h.
Sample P3 was kept in the laboratory for approx. 55 minutes under ambient conditions before the second storage step.
The interpretation of the specified data is explained again in more detail by the example of the data for P1 given in the preceding Table 8:
Storage of 1: • first storage step: 95% atmospheric humidity • second storage step: 4% atmospheric humidity […]

[5] abbreviates: after approx. 75% r.h. approx. 7 days.
[6] abbreviates: after approx. 95% r.h. approx. 7 days.
[7] abbreviates: approx. 75% r.h. approx. 7 days, then approx. 4% approx. 2.5 days.
[8] abbreviates: approx. 75% r.h. approx. 8.5 days, then approx. 4% approx. 6 h.
[9] abbreviates: approx. 95% r.h. approx. 7 days, then approx. 4% approx. 7 days.
Where [10] appears, read: approx. 95% r.h. approx. 8.5 days, then approx. 4% approx. 6 h.

“Also recorded” adds a separate entry of the source. Where a name gives a salt, the structure may show the parent alone.

For the compound `COc1cccc([C@@]2(O)C[C@H](O)CC[C@@H]2CN(C)C)c1` (racemic) [form B, (1RS,3RS,6RS)-6-dimethylaminomethyl-1-(3-methoxyphenyl)-cyclohexane-1,3-diol], the “Change in the physical form on drying” value was “converted into amorphous material” in series [1] (68° C. in a drying cabinet in vacuo for 3 days), “no changes in the physical form were observed” in series [1] (13 hours at 40° C. in vacuo) and “no changes in the physical form were observed” in series [1] (24 hours at 40° C. in vacuo).
Consider `COc1cccc([C@@]2(O)C[C@H](O)CC[C@@H]2CN(C)C)c1` (racemic) [form A, (1RS,3RS,6RS)-6-dimethylaminomethyl-1-(3-methoxyphenyl)-cyclohexane-1,3-diol], for which the “Stability of the hydrate formed during the desorption” value in series [2] (desorption) is “remained stable during the desorption”.
Turning to `COc1cccc([C@@]2(O)C[C@H](O)CC[C@@H]2CN(C)C)c1` (racemic) [amorphous phosphate salt of I, (1RS,3RS,6RS)-6-dimethylaminomethyl-1-(3-methoxyphenyl)-cyclohexane-1,3-diol], the “Relative atmospheric humidity at which the amorphous salt crystallized” value in series [2] was 45 % r.h. In addition, the “Form formed on storage” value in series [3] was “form A”.
As for `COc1cccc(C2(O)CC(O)CCC2CN(C)C)c1` (stereo not drawn) [Sample H1, 6-dimethylaminomethyl-1-(3-methoxyphenyl)-1,3-dihydroxy-cyclohexane], the entries for the “% pt (middle)” value in series [4] (setting [5]) and in series [4] (setting [6]) were −2.73 % pt and −4.88 % pt, respectively. Further, the values for the Form middle result in series [4] (setting [5]) and in series [4] (setting [6]) were “form A,; also recorded: form B,; also recorded: form C,; also recorded: form D” and “form B”, respectively. Further, the figures for the “% pt after” value in series [4] (setting [7]) and in series [4] (setting [9]) were 0.53 % pt and −3.84 % pt, respectively. Besides, the Form after result in series [4] (setting [7]) was “form B,; also recorded: form A”; in series [4] (approx. 75% relative atmospheric humidity approx. 8.5 days, then approx. 4% approx. 6 h), “form B, further”; in series [4] (setting [9]), “form B”; in series [4] (setting [10]), “form B, further”. Moreover, in series [4] (setting [8]), the “% pt (difference in the moisture content, thermogravimetry, after vs before storage)” value was −1.22 % pt. Also, the “Laboratory/% (percentage change in total weight by weighing)” value in series [4] (setting [8]) is listed as “+1.14%”; in series [4] (setting [10]), “+4.99%”. Further, the “% pt (difference in the moisture content, thermogravimetry)” value in series [4] (setting [10]) is −4.89 % pt. Also, the “Laboratory/% (after)” value is recorded as −1.24% in series [4] (storage step approx. 4% r.h. approx. 2.5 days, after 75% r.h. 7 days) and −22.76% in series [4] (storage step approx. 4% r.h. approx. 7 days, after 95% r.h. 7 days). Further, the “Laboratory/% (middle)” value in series [4] (storage step approx. 75% r.h. approx. 7 days) was 2.89%; in series [4] (storage step approx. 95% r.h. approx. 7 days), “+13.72%”.
